This passage reports IC50 results from patent publication US11020400B2, “Tetrahydropyranyl amino-pyrrolopyrimidinone and methods of use thereof” (ArQule, Inc., priority 2015, dated 2021).

SMILES strings stand for the structures.

One assay concerns Rec-1 cells. Briefly: Anti-Proliferation Assay (MTS), Rec-1 cells. The assay is classed as cell-based. The note with it: Homo sapiens, Rec1, treated for 72 hours, MTS cell survival. How it is done: (§1) Cell survival is determined by a MTS assay. Briefly, cells (i.e., TMD-8 cells or Rec-1 cells) are plated in a 96-well plate, cultured in complete growth medium, and then treated with various drugs and drug combinations. MTS/PMS is added and incubated, followed by assessment of cell viability using the microplate reader. Data is normalized to untreated controls and analyzed with Microsoft Excel.
(§2) Cell survival was determined by the MTS assay. Briefly, cells (i.e., TMD-8 cells or Rec-1 cells) were plated in a 96-well plate at 2,000-10,000 cells per well, cultured for 24 hours in complete growth medium, and then treated with various drugs and drug combinations for 72 hours. MTS/PMS was added and incubated for 4 hour, followed by assessment of cell viability using the microplate reader (absorbance at 490 nm). Data were normalized to untreated controls and analyzed with Microsoft Excel.

Another assay has as its system TMD-8 cells. Briefly: Anti-Proliferation Assay (MTS), TMD-8 cells. In kind it is cell-based. The note with it: Homo sapiens, TMD8, treated for 72 hours, MTS cell survival. The procedure:
as §1, §2

For orientation: IC50 means the concentration that inhibits the measured activity by half. For `O=C(c1ccc(Oc2ccccc2)cc1Cl)c1c[nH]c2ncnc(N[C@@H]3CC[C@@H](CO)OC3)c12` [Compound (I), (2-chloro-4-phenoxyphenyl)(4-(((3R,6S)-6-(hydroxymethyl)tetrahydro-2H-pyran-3-yl)amino)-7H-pyrrolo[2,3-d]pyrimidin-5-yl)methanone], the IC50 in the assay with Rec-1 cells stood at 180 ± 70 nM; in the assay on TMD-8 cells, 130 ± 60 nM.
